From publication PMC12574689, “Synthesis of novel SRPK1-targeting hybrid compounds incorporating antimetabolites for cancer therapy” (RSC Medicinal Chemistry, 2025)

Assays:
HeLa = test: MTT viability assay, HeLa; format: cell-based; conditions: Homo sapiens, 48 h treatment, mean of three independent experiments
Procedure: (§1) To evaluate the cytotoxic effects of the hybrid compounds geo15 and geo140, we performed MTT assays on HeLa, K562, A549, HepG2, HT-29 and Caco2 cancer cell lines, as well as primary intestinal subepithelial myofibroblasts (SEMFs).
(§2) HeLa, K562, HT-29, Caco-2, HepG2 and A549 cancer cell lines were obtained from the American Type Culture Collection (ATCC). All cell lines were cultured at 37 °C with 5% CO2. HeLa, Caco-2, HepG2 and A549 cells were maintained in Dulbecco's modified Eagle medium (DMEM, PAN Biotech) supplemented with 10% FBS and antibiotics/antimycotics, while K562 cells were maintained in RPMI and HT-29 cells in McCoy's 5a medium (Biosera) with the same supplements.
(§3) All cells were seeded in 96-well plates (Corning, New York, USA) at density of 10^4 cells per well, except HeLa that were seeded at destiny of 2 × 10^3. After 24 hours, the cells were treated with increasing concentrations of the inhibitory compounds for 48 hours. Cytotoxic activity of parent and conjugate compounds was assessed by 3-(4,5-dimethylthiazol-2-yl)-2,5-diphenyltetrazolium bromide (MTT) assay, according to manufacturer's instructions. In brief, 100 μl of growth medium containing 0.5 mg ml^−1 MTT (Sigma-Aldrich, Darmstadt, Germany) were added to each well of a 96-well plate and incubated at 37 °C and 5% CO2 for 2 hours until the formation of visible intracellular purple crystals. Then, MTT-supplemented growth medium was discarded and 100 μl dimethyl sulfoxide (Sigma-Aldrich, Darmstadt, Germany) were added per well for solubilization of dye. Absorbance was then measured on a microplate reader (Diareader EL 800; Dialab, Wr. Neudorf, Austria) at 570 nm with a reference wavelength at 660 nm.

K562 = test: MTT viability assay, K562; format: cell-based; conditions: Homo sapiens, 48 h treatment, mean of three independent experiments
Procedure: as §1, §2, §3

A549 = test: MTT viability assay, A549; format: cell-based; conditions: Homo sapiens, 48 h treatment, mean of three independent experiments
Procedure: as §1, §2, §3

HepG2 = test: MTT viability assay, HepG2; format: cell-based; conditions: Homo sapiens, 48 h treatment, mean of three independent experiments
Procedure: as §1, §2, §3

HT-29 = test: MTT viability assay, HT-29; format: cell-based; conditions: Homo sapiens; HT-29, MTT, 48 h treatment, mean of three independent experiments
Procedure: as §1, §2, §3

Caco2 = test: MTT viability assay, Caco2; format: cell-based; conditions: Homo sapiens, Caco-2, 48 h treatment, mean of three independent experiments
Procedure: as §1, §2, §3

[1] = tested on: primary intestinal subepithelial myofibroblasts (SEMFs); test: MTT viability assay, primary SEMFs; format: cell-based; conditions: Homo sapiens, 48 h treatment, mean of three independent experiments
Text: as §1
Intestinal myofibroblast isolation: primary intestinal subepithelial myofibroblasts were isolated from freshly collected intestinal mucosa biopsies as previously described,[28] from healthy individuals undergoing endoscopy for reasons of surveillance, after obtaining written and informed consent. Briefly, 4–6 pieces of intestinal tissue were collected in ice-cold Hank's Balanced Salt Solution (HBSS; Biosera, Nuaille, France) containing Ca^2+/Mg^2+ supplemented with P/S/A/G: penicillin (100 U ml^−1), streptomycin (100 μg ml^−1), amphotericin (2.5 μg ml^−1) and gentamycin (50 μg ml^−1), followed by 15 minute washes with HBSS with and without Ca^2+/Mg^2+ to remove possible contaminants. Next tissue was de-epithelialized by a 15 minute incubation in HBSS without Ca^2+/Mg^2+ containing 1 mM dithiothreitol (DTT, Sigma-Aldrich, Darmstadt, Germany) followed by 3× 30 minute washes in HBSS supplemented with 1 mM ethylenediaminetetraacetic acid (EDTA, Sigma-Aldrich, Darmstadt, Germany) at 37 °C. Tissue was cultured in RPMI 1640 (PAN Biotech, Aidenbach, Germany) supplemented with 10% fetal bovine serum (FBS; Biosera, Nuaille, France) and P/S/A/G for as long as 30 days at 37 °C and 5% CO2. After colonies of myofibroblasts reached 30% confluency, cells were detached and consequently cultured in 75 cm^2 flasks in Dulbecco's modified Eagle medium (DMEM, 4.5 g l^−1 glucose; PAN Biotech, Aidenbach, Germany) with 10% fetal bovine serum and P/S/A.
as §3

GST-SRPK1 = molecular target: T1, GST-SRPK1 (Homo sapiens, UniProt Q96SB4); test: In vitro kinase assay, GST-SRPK1; format: biochemical; conditions: substrate GST-LBRNt(62–92), 25 μM ATP
T1 construct: made in house; host or cells: bacteria (pGEX-2T vector)
Procedure: (§4) The inhibitory activity of geo140 and JH-VII-139-1 against SRPK1 and SRPK2 was assessed using in vitro kinase assays (Fig. 5). […] The IC50 values summarized in Panel E indicate that both JH-VII-139-1 and the hybrid compound geo140 act as effective inhibitors of SRPK-mediated phosphorylation, with however, differential selectivity between SRPK1 and SRPK2.
(§5) Fig. 5 Phosphorylation of 1 μg GST-LBRNt(62–92) by 0.5 μg GST-SRPK1 or 0.5 μg GST-SRPK2 in the presence of increasing concentrations of geo140 (A and B, respectively) or in the presence of increasing concentrations of JH-VII-139-1 (C and D, respectively). Panel C was taken from a previous publication of the authors.[2] The samples were analyzed by SDS-PAGE on 12% gels, stained with Coomassie blue and autoradiographed. Only the relevant part of the autorad corresponding to the phosphorylated substrate is shown. E. IC50 values of geo140 and JH-VII-139-1 against GST-SRPK1 and GST-SRPK2.
(§6) Human SRPK1, SRPK2, and a turkey LBR N-terminal fragment (amino acids 62–92; LBRNt(62–92)) were expressed as GST-fusion proteins in bacteria using the pGEX-2T vector (Amersham Biosciences) as previously described.[15] […] Phosphorylated GST-LBRNt(62–92) was detected by autoradiography (Super RX film, Fujifilm). Incorporated radioactivity was quantified by scintillation counting of the excised SDS-PAGE gel bands.

GST-SRPK2 = molecular target: T2, GST-SRPK2 (Homo sapiens, UniProt P78362); test: In vitro kinase assay, GST-SRPK2; format: biochemical; conditions: substrate GST-LBRNt(62–92), 25 μM ATP
T2 construct: made in house; host or cells: bacteria (pGEX-2T vector)
Procedure: as §4, §5, §6

[2] = Chemostability in pH 5.2 and 7.4 buffers and DMEM (LC-ESI-MS); format: physicochemical; conditions: 37 °C
Procedure: (§7) The stability of SRPK1-targeting conjugates geo15 and geo140 was assessed at pH 5.2 and 7.4, as well as in cell culture medium (DMEM) and human plasma. All experiments were conducted at 37 °C, with samples analysed by LC-ESI-MS at specific time points. […] The half-lives of the conjugates ranged from several minutes to several hours, is discussed below.
(§8) Chemical stability experiments were conducted using LC-MS Method 4, except for the
(§9) pH stability studies of compound geo15, which were performed using LC-MS Method
(§10) 3. Representative chromatograms are provided for each experiment. geo15:
(§11) Figure S16. Chemical stability assay LC chromatograms for geo15.
(§12) Figure S17. Chemical stability assay LC chromatograms for geo140.

[3] = Stability in human plasma (LC-ESI-MS); format: in vitro ADME; conditions: 37 °C
Procedure: as §7, §8, §9, §10, §11, §12

SRPK1 in HeLa cells = test: Immunofluorescence of SRPK1 subcellular localization; format: cell-based
Procedure: In a following step the effect of geo140 was tested on the subcellular distribution of SRPK1 in HeLa cells. To address this issue, a series of immunofluorescence experiments was performed to assess the effect of geo140, relative to its parent compounds, JH-VII-139-1 and 5-FU on SRPK1 localization.
Fig. 6 Fluorescent patterns of SRPK1 in HeLa cells treated with JH-VII-139-1, 5-FU, and geo140 (for the indicated concentrations and time periods). SRPK1 was detected using an anti-SRPK1 monoclonal antibody (Alexa488-green fluorescence) while nuclei were stained with PI (red fluorescence). Scale bar: 10 μm.
HeLa cells (3 × 10^4 cells per well) were seeded on glass coverslips in 24-well plates. After 24 hours, cells were treated with the indicated concentrations of inhibitors for 24 or 48 hours. Following incubation, samples were fixed with 4% paraformaldehyde in PBS for 20 minutes at room temperature. Paraformaldehyde was quenched with 100 mM Tris-HCl (pH 7.5), and cells were permeabilized with 0.2% Triton X-100 in PBS for 10 minutes. Blocking was performed with 0.5% fish skin gelatin in PBS. Cells were then probed with a primary antibody (anti-SRPK1 monoclonal, 1 : 100 dilution, BD Biosciences, San Jose, CA, USA) and a secondary antibody (Alexa488-conjugated goat anti-mouse, 1 : 400 dilution, Molecular Probes, Eugene, OR, USA), followed by DNA staining with propidium iodide, as previously described.[25] Coverslips were mounted with mounting medium (0.01% p-phenylenediamine and 50% glycerol in PBS) and visualized using a Nikon confocal microscope with EZ-C1 3.20 software.

HeLa cells = test: Inverted phase-contrast microscopy of treated cells; format: cell-based; conditions: 10 μM, phase-contrast microscope
Procedure: A similar morphology of geo140-treated cells was also observed using an inverted phase-contrast microscope.
Fig. 7 Microscopic view of control HeLa cells and treated with 10 μM geo140, taken at 10× or 40× magnification as indicated, using an inverted phase-contrast microscope.

T1 sequence (Q96SB4 whole entry): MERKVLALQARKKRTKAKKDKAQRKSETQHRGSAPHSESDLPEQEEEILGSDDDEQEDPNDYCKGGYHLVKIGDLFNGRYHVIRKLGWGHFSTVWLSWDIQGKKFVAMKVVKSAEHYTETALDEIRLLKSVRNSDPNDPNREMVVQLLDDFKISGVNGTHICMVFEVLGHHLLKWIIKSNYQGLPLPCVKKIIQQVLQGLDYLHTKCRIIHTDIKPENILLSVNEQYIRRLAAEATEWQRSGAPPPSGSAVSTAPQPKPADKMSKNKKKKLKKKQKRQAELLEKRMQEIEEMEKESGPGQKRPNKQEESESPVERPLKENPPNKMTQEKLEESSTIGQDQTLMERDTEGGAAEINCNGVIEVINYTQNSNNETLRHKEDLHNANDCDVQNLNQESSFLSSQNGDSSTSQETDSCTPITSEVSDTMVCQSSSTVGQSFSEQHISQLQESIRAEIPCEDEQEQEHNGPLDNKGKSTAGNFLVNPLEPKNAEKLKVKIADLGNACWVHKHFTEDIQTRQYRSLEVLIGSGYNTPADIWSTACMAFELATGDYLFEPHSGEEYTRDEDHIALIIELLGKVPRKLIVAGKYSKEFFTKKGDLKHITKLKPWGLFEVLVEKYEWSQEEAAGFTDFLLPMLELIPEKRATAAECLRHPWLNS
T2 sequence (P78362 whole entry): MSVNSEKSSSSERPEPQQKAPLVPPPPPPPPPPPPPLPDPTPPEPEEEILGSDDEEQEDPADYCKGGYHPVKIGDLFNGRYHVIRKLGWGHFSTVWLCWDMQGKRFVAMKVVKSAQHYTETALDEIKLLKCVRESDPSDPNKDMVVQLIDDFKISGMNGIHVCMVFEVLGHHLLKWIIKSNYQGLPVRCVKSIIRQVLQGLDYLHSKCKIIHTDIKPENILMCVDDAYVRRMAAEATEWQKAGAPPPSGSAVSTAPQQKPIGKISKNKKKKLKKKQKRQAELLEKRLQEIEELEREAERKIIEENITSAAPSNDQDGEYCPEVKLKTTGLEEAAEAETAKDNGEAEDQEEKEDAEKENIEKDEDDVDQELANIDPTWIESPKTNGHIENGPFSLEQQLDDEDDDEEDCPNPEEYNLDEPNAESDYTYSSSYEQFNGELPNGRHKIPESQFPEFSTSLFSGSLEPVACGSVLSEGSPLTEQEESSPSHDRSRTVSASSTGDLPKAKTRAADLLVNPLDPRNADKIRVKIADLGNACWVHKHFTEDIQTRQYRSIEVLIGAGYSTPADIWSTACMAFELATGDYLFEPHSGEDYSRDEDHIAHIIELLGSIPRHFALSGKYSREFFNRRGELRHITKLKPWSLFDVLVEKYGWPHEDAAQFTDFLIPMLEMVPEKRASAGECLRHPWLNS

In the case of `CCc1cc2c(cc1-c1ccn(C(=O)NCCOCCOCCNC(=O)Cn3c(=O)[nH]cc(F)c3=O)n1)C(C)(C)c1[nH]c3cc(C#N)ccc3c1C2=O` [geo140, (JH-VII-139-1)–(5-FU) conjugate], the EC50 (HeLa) is reported as 11.7 µM, the EC50 (K562) is reported as 13.7 µM and the EC50 (A549) is reported as greater than 50 µM. For the same compound, the EC50 (HepG2) was 27.1 µM, the EC50 (HT-29) was 19.3 µM and the EC50 (Caco2) was 31.2 µM. The EC50 [1] was 21.5 µM, the IC50 (GST-SRPK1) was 0.0221 µM and the IC50 (GST-SRPK2) was 7.9 µM. For the same compound, the “reduction in initial concentration” value ([2]; DMEM, after 24 hours) was 10–20%, the half-life ([2]; pH 5.2 buffer) was greater than 48 h and the half-life ([2]; pH 7.4 buffer) was greater than 48 h. The “reduction in initial concentration” value ([3]; after 24 hours) was 10–20%, the “SRPK1 distribution in interphase cells” value (SRPK1 in HeLa cells) was “SRPK1 retained a cytoplasmic distribution similar to that seen in untreated controls” and the “number of mitotic cells” value (SRPK1 in HeLa cells; immunofluorescence) was “significant increase in the number of mitotic cells”. The “mitotic cells (round shape, distinct chromosomal structures)” value (HeLa cells) was “significant increase in mitotic cells”.

With `Nc1ccn([C@@H]2O[C@H](CO)[C@@H](O)C2(F)F)c(=O)n1` [Gemcitabine, gemcitabine, reference compound] the EC50 (HeLa) was 6.7 µM, the EC50 (K562) was greater than 50 µM and the EC50 (A549) was greater than 50 µM. For the same compound, the EC50 (HepG2) was 31.4 µM, the EC50 (HT-29) was 28.7 µM and the EC50 (Caco2) was greater than 50 µM. For the same compound, the EC50 [1] was greater than 50 µM.

Work on `O=c1[nH]cc(F)c(=O)[nH]1` [5-FU, 5-fluorouracil, reference compound] yielded an EC50 (HeLa) of 25.7 µM, an EC50 (K562) greater than 50 µM and an EC50 (A549) of 15.2 µM. For the same compound, the EC50 (HepG2) was greater than 50 µM, the EC50 (HT-29) was 3.62 µM and the EC50 (Caco2) was greater than 50 µM. For the same compound, the EC50 [1] was greater than 50 µM, the “effect on SRPK1 subcellular localization” value (SRPK1 in HeLa cells; 20 μM, 24 h) was “more diffuse SRPK1 staining pattern, with some nuclear translocation of the kinase” and the “effect on SRPK1 subcellular localization” value (SRPK1 in HeLa cells; 48 h) was “almost complete nuclear translocation of SRPK1”.

`COc1cc(/C=C(\C#N)C(=O)Nc2nnc(C(F)(F)F)s2)ccc1OCc1ccc(NC(=O)CNC(=O)OC[C@H]2O[C@@H](n3ccc(N)nc3=O)C(F)(F)[C@@H]2O)cc1` [geo15] gave an EC50 (HeLa) of 33.1 µM, an EC50 (K562) greater than 50 µM and an EC50 (A549) greater than 50 µM. The EC50 (HepG2) was greater than 50 µM, the EC50 (HT-29) was 38.4 µM and the EC50 (Caco2) was greater than 50 µM. For the same compound, the EC50 [1] was greater than 50 µM, the half-life ([2]; DMEM cell culture medium, DMEM) was greater than 48 h and the “detection of retro-Knoevenagel reaction product 21” value (“detection” for short) ([2]; DMEM) was “not observed”. For the same compound, the “concentration of the conjugate remaining” value ([2]; during the 24 hour period, overall stability profile (all media)) was “above 50%”, the half-life ([2]; pH 7.4 buffer) was greater than 48 h and the “detection” value ([2]; pH buffer media) was “small percentage”. For the same compound, the “release of SRPIN803 via the 1,6-elimination mechanism” value ([2]; stability media) was “no release of SRPIN803”, the “detection” value [3] was “not observed” and the half-life [3] was greater than 48 h.
